Where two headings read alike, the source gives them in different places.
Experiments:
[1] = test system: MM.1S; assay: CCK-8 proliferation, MM.1S; assay type: cell-based; details: Homo sapiens, MM1.S, MM.1S cells, read-out: Inhibitory activity (IC50, nM) on tumor cell proliferation, MM.1S
Experimental: (§1) The tumor cells used herein were cultured in a cell culture medium listed in table A1 at 37°C in an incubator with 5% CO2. Prior to experimentation, all cell lines used were correctly identified by STR profiling, and tested negative for mycoplasma contamination using a mycoplasma detection kit through routine screenings. Table A1. Tumor cells and cell culture medium used in the present disclosure
(§2) IC50 values of the compounds of the present disclosure (including the compounds in Table 1, and compounds of examples) were measured using the Meilun Cell Counting Kit-8 kit from Dalian Meilun Biotech Co., Ltd. Assay details are as follows: tumor cells were seeded in a 96-well plate at a density listed in Table A2. After 24h, 100 µL of the inoculated cells were treated with 0.5µL of the compounds of the present disclosure (including the compounds in Tables 1 and 2, and compounds of examples) at 10 different successively decreasing concentrations (starting at the highest concentration of 10µM; 5-fold serial dilutions). After the cells were treated with the compounds of the present disclosure for a period of time, the cell viability detection reagent was added to the culture medium for cell viability assessment according to the instructions provided with the CCK-8 kit. […] The growth inhibition of the compounds of the present disclosure on cells was plotted by Prism Graphpad software, and the IC50 values of the compounds of the present disclosure were calculated therefrom. […] Seeding protocol and treatment time for tumor cells

[2] = test system: H2228; assay: CCK-8 proliferation, NCI-H2228 (H2228); assay type: cell-based; details: Homo sapiens, NCI-H2228; Table B6, compounds designed based on the ALK inhibitors; H2228 cells; read-out: Inhibitory activity (IC50, nM) on tumor cell proliferation, H2228
Experimental: as §1, §2

[3] = test system: MCF7; assay: CCK-8 proliferation, MCF7 (MCF-7); assay type: cell-based; details: Homo sapiens, MCF7; Table B6, compounds designed based on the ALK inhibitors; MCF-7 cells; read-out: Inhibitory activity (IC50, nM) on tumor cell proliferation, MCF-7
Experimental: as §1, §2

[4] = test system: SR; assay: CCK-8 proliferation, SR; assay type: cell-based, Human; details: Homo sapiens, SR cells, read-out: Inhibitory activity (IC50, nM) on tumor cell proliferation, SR
Experimental: as §1, §2

[5] = test system: EGFR; assay: Western blot degradation of EGFR (H1975 Cell); assay type: cell-based, Human; details: Table D2
Experimental: Conventional Western blot assay was performed to evaluate the effects of the compounds of the present disclosure on the expression of target proteins in cells.
(1) Cell Seeding and Protein Harvesting: The selected cells were processed according to the cell seeding procedure and protein harvesting procedure in Table III-2. Table III-2 Cell Seeding and Protein Harvesting Procedures
(2) To the collected supernatant, 5X SDS sample loading buffer was added, followed by denaturation at 95°C for 5 minutes. The denatured samples were then separated by SDS-PAGE electrophoresis on a polyacrylamide gel. Proteins were transferred to a nitrocellulose membrane (0.45 µm NC membrane), blocked with blocking buffer at room temperature for 1 hour, and subjected to antibody incubation and development procedures according to the antibody manufacturer's instructions (Cell Signaling Technology).
Half-Maximal Degradation Concentration value (the drug concentration required for degrading proteins by 50%, abbreviated as DC50) reads method: comparing the grayscale values of Western blot bands from drug-treated samples with those from blank DMSO-treated controls, and identifying the drug concentration range at which the grayscale value is half that of the DMSO-treated control bands.
DC50 values can be calculated using ImageJ software to measure grayscale values of Western blot bands from drug-treated samples. The concentration-response curve is fitted to estimate the drug concentration corresponding to half the grayscale value.
Target protein remaining (%) refers to the percentage of target protein remaining in hPBMC cells after treatment with protein degrader compounds.
Calculation method for target protein remaining (%): Use ImageJ software to measure grayscale values of Western blot bands from drug (protein degrader)-treated samples. The grayscale value of drug-treated bands is divided by that of internal control protein bands, and the resulting quotient is normalized to obtain the relative percentage of remaining target protein after protein degrader treatment.
Target protein degradation rate (%) = 100% - target protein remaining (%).

[6] = test system: H1975; assay: CCK-8 proliferation, NCI-H1975 (H1975); assay type: cell-based, Human; details: Homo sapiens, NCI-H1975; Table B6, compounds designed based on the ALK inhibitors; H1975 cells; read-out: Inhibitory activity (IC50, nM) on tumor cell proliferation, H1975
In short: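 Cells seeded, then after 24 h treated with 10 concentrations (top 10 µM, 5-fold serial dilution) for a line-specific time at 37°C, 5% CO2. Viability read by CCK-8; IC50 fitted from growth-inhibition curves.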

[7] = Table B6, compounds designed based on the ALK inhibitors
[8] = Table B10, compounds designed based on the IRAK4 inhibitors

SMILES	IC50 [1, 7] [nM]	IC50 [2] [nM]	IC50 [3] [nM]	IC50 [4, 7] [nM]	Degradation of substrate protein EGFR (substrate protein remaining %) [5]	other results
CCn1nc(N2CCC(N(C)Cc3ccc(N4CCC(=O)NC4=O)nc3)CC2)c2cnc(Nc3ccnc(-c4cnn(S(=O)(=O)C5CC5)c4)n3)cc21 [GT-06022, 1-(5-(((1-(6-((2-(1-(cyclopropylsulfonyl)-1H-pyrazol-4-yl)pyrimidin-4-yl)amino)-1-ethyl-1H-pyrazolo[4,3-c]pyridin-3-yl)piperidin-4-yl)(methyl)amino)methyl)pyridin-2-yl)dihydropyrimidine-2,4(1H,3H)-dione]	–	–	–	–	A (A is defined as 0% ≤ substrate protein remaining % ≤ 80%)	–
CN(Cc1ccc(N2CCC(=O)NC2=O)cn1)C1CCN(c2ccc(Nc3ncc4nc(Nc5ccccc5)n(C5CCCC5)c4n3)cc2)CC1 [GT-07093, 1-(6-(((1-(4-((9-cyclopentyl-8-(phenylamino)-9H-purin-2-yl)amino)phenyl)piperidin-4-yl)(methyl)amino)methyl)pyridin-3-yl)dihydropyrimidine-2,4(1H,3H)-dione]	–	–	–	–	A (A is defined as 0% ≤ substrate protein remaining % ≤ 80%)	–
CC(C)n1nc(N2CCC(N3CCN(Cc4ccc(N5CCC(=O)NC5=O)cc4)CC3)CC2)c2cnc(Nc3ccnc(-c4cnn(S(=O)(=O)C5CC5)c4)n3)cc21 [GT-06079, 1-(4-((4-(1-(6-((2-(1-(cyclopropylsulfonyl)-1H-pyrazol-4-yl)pyrimidin-4-yl)amino)-1-isopropyl-1H-pyrazolo[4,3-c]pyridin-3-yl)piperidin-4-yl)piperazin-1-yl)methyl)phenyl)dihydropyr imidine-2,4(1H,3H)-dione]	–	–	–	–	A (A is defined as 0% ≤ substrate protein remaining % ≤ 80%)	–
COC1CCN(c2nccc(Nc3cc4c(cn3)c(N3CCN(Cc5cccc(N6CCC(=O)NC6=O)c5)CC3)nn4C(C)C)n2)CC1 [GT-06038, 1-(3-((4-(1-isopropyl-6-((2-(4-methoxypiperidin-1-yl)pyrimidin-4-yl)amino)-1H-pyrazolo[4,3-c]pyridin-3-yl)piperazin-1-yl)methyl)phenyl)dihydropyr imidine-2,4(1H,3H)-dione]	–	–	–	–	A (A is defined as 0% ≤ substrate protein remaining % ≤ 80%)	–
O=C1CCN(c2ccc(CN3C[C@@H]4C[C@H]3CN4c3ccc(-c4cc(F)c5c(c4)C(=O)N(C(C(=O)Nc4nccs4)c4ncn6c4CCC6)C5)cc3)cn2)C(=O)N1 (stereo partly drawn) [GT-05120, 2-(6,7-dihydro-5H-pyrrolo[1,2-c]imidazol-1-yl)-2-(6-(4-((1S,4S)-5-((6-(2,4-dioxotetrahydropyrimidin-1(2H)-yl)pyridin-3-yl)methyl)-2,5-diazabicyclo[2.2.1]heptan-2-yl)phenyl)-4-fluoro-1-oxoisoindolin-2-yl)-N-(thiazol-2-yl)acetamide]	–	–	–	–	A (A is defined as 0% ≤ substrate protein remaining % ≤ 80%)	–
CCc1cc2c(cc1N1CCC(N3CCN(Cc4cncc(C5CCC(=O)NC5=O)c4)CC3)CC1)C(C)(C)c1[nH]c3cc(C#N)ccc3c1C2=O (centres unmarked) [GT-07706, 8-(4-(4-((5-(2,6-dioxopiperidin-3-yl)pyridin-3-yl)methyl)piperazin-1-yl)piperidin-1-yl)-9-ethyl-6,6-dimethyl-11-oxo-6,11-dihydro-5H-benzo[b]carbazole-3-carbonitrile]	500 to 1000	50 to 100	500 to 1000	1 to 10	–	IC50 [6]: 500 to 1000 nM
O=C1CCC(c2ccc(CN3CCN(Cc4ccc5c(c4)nc(NC(=O)c4cccc(C(F)(F)F)c4)n5[C@H]4CC[C@@H](CO)CC4)CC3)cc2)C(=O)N1 (some centres unmarked) [GT-04978, N-(5-((4-(4-(2,6-dioxopiperidin-3-yl)benzyl)piperazin-1-yl)methyl)-1-((1s,4s)-4-(hydroxymethyl)cyclohexyl) -1H-benzo[d]imidazol-2-yl)-3-(trifluoromethyl)benzamide]	–	–	–	–	–	IC50 [1, 8]: 500 to 1000 nM; IC50 [4, 8]: 100 to 500 nM
O=C1CCN(c2ccc(CN3CCC(n4cc(NC(=O)c5cnn6ccc(N7C[C@H]8C[C@@H]7CO8)nc56)c(C(F)F)n4)CC3)nc2)C(=O)N1 [GT-05053, 5-((1R,4R)-2-oxa-5-azabicyclo[2.2.1]heptan-5-yl)-N-(3-(difluoromethyl)-1-(1-((5-(2,4-dioxotetrahydropyrimidin-1(2H)-yl)pyridin-2-yl)methyl)piperidin-4-yl)-1H-pyrazol-4-yl)pyrazolo[1,5-a]pyrimidine-3-carboxamide]	–	–	–	–	–	IC50 [1, 8]: 500 to 1000 nM

Second part, led by results:

IC50 [1, 7] [nM]	IC50 [2] [nM]	IC50 [3] [nM]	SMILES	IC50 [4, 7] [nM]	Degradation of substrate protein EGFR (substrate protein remaining %) [5]	other results
500 to 1000	100 to 500	100 to 500	Cc1cc(Nc2ncc(Cl)c(Nc3ccccc3S(=O)(=O)C(C)C)n2)c(OC(C)C)cc1C1CCN(Cc2ccnc(C3CCC(=O)NC3=O)c2)CC1 (centres unmarked) [GT-07599, 3-(4-((4-(4-((5-chloro-4-((2-(isopropylsulfonyl)phenyl)amino)pyrimidin-2-yl)amino)-5-isopropoxy-2-methylphenyl)piperidin-1-yl)methyl)pyridin-2-yl)piperidine-2,6-dione]	10 to 50	–	–
500 to 1000	50 to 100	500 to 1000	Cc1cc(Nc2ncc(Cl)c(Nc3ccccc3S(=O)(=O)C(C)C)n2)c(OC(C)C)cc1C1CCN(Cc2cncc(N3CCC(=O)NC3=O)c2)CC1 [GT-07597, 1-(5-((4-(4-((5-chloro-4-((2-(isopropylsulfonyl)phenyl)amino)pyrimidin-2-yl)amino)-5-isopropoxy-2-methylphenyl)piperidin-1-yl)methyl)pyridin-3-yl)dihydropyrimidine-2,4(1H,3H)-dione]	10 to 50	–	–
500 to 1000	50 to 100	500 to 1000	CCc1cc2c(cc1N1CCC(N3CCN(Cc4ccc(N5CCC(=O)NC5=O)cn4)CC3)CC1)C(C)(C)c1[nH]c3cc(C#N)ccc3c1C2=O [GT-07311, 8-(4-(4-((5-(2,4-dioxotetrahydropyrimidin-1(2H)-yl)pyridin-2-yl)methyl)piperazin-1-yl)piperidin-1-yl)-9-ethyl-6,6-dimethyl-11-oxo-6,11-dihydro-5H-benzo[b]carbazole-3-carbonitrile]	1 to 10	–	IC50 [6]: 500 to 1000 nM
500 to 1000	10 to 50	100 to 500	COc1cc(N2CCC(N3CCN(Cc4ccc(N5CCC(=O)NC5=O)cc4)CC3)CC2)ccc1Nc1ncc(Cl)c(Nc2ccccc2P(C)(C)=O)n1 [GT-07603, 1-(4-((4-(1-(4-((5-chloro-4-((2-(dimethylphosphoryl)phenyl)amino)pyrimidin-2-yl)amino)-3-methoxyphenyl)piperidin-4-yl)piperazin-1-yl)methyl)phenyl)dihydropyr imidine-2,4(1H,3H)-dione]	10 to 50	–	IC50 [6]: 100 to 500 nM
500 to 1000	10 to 50	100 to 500	Cc1cc(Nc2ncc(Cl)c(Nc3ccccc3S(=O)(=O)C(C)C)n2)c(OC(C)C)cc1C1CCN(Cc2cncc(C3CCC(=O)NC3=O)c2)CC1 (centres unmarked) [GT-07601, 3-(5-((4-(4-((5-chloro-4-((2-(isopropylsulfonyl)phenyl)amino)pyrimidin-2-yl)amino)-5-isopropoxy-2-methylphenyl)piperidin-1-yl)methyl)pyridin-3-yl)piperidine-2,6-dione]	10 to 50	–	–

Reference: patent EP4678638A1, “NEW E3 UBIQUITIN LIGASE LIGAND, PROTEIN DEGRADATION AGENT AND USE THEREOF” (priority 2023, dated 2024)
